Data: patent US11284835B2, “Method for assessing pain caused by administration of drug solution, and method for selecting drug solution administration” (TERUMO KABUSHIKI KAISHA, priority 2016, dated 2022)

Columns and labels:
human = conditions: cited from earlier work
rat = test: Electromyogram (EMG) of the myoelectric response caused by drug solution administration into the plantar subcutaneous of anesthetized rats; type: in vivo
Description: In the embodiment illustrated in FIG. 1, a subject (experimental animal) used for assessment of pain caused by administration of a drug solution is a rat 12. Conditions of the rat 12 that can be used are, for example, an age in range of 7 to 10 weeks old, a body weight in a range of 200 to 400 g, and a strain that is SD (other strains are also possible). An acclimation and quarantine period of the rat 12 is preferably five days or longer. An anesthesia mask 13 is attached to the rat 12, and inhalation anesthesia is performed.
In order to measure the pain caused by the administration of the drug solution, a myoelectric potential of the semitendinosus muscle 12b of the thigh of the rat 12 is recorded. At the time of recording the myoelectric potential, a needle-shaped measurement electrode 24 (for example, a bipolar hook electrode) is punctured under the semitendinosus muscle 12b to be placed, and a reference electrode 26 is pasted to a thoracic skin surface 12c. Potential signals from the measurement electrode 24 and the reference electrode 26 are amplified by a high-sensitivity bioelectric amplifier 28 and transmitted to a data collection device 30.
A rat 12 serving as a subject is prepared (a preparation step), and the rat 12 is subjected to inhalation anesthesia (an anesthesia step). Examples of an applicable inhalation anesthetic include isoflurane. […] Incidentally, it is preferable to heat the rat 12 with a warming mat to keep the body temperature constant during the anesthesia.
Next, the measurement electrode 24 is placed in the semitendinosus muscle 12b of the anesthetized rat 12 (a measurement electrode placement step). […] At this time, the thigh skin at a position where contraction has been recognized is incised by about 1 cm to expose the semitendinosus muscle 12b, and then, the measurement electrode 24 is inserted.
Thereafter, the anesthetic depth is kept constant. […]
Once such a myoelectric potential waveform is obtained, the measurement step is performed in order to assess (quantify) the pain caused by the drug solution administration. […]

| SMILES | magnitude of pain (VAS) over time (human; 5% NaCl injected (FIG. 6A)) | magnitude of pain (EMG intensity) (rat; 10% NaCl, plurality of different administration rates (FIG. 9B)) | pain (EMG intensity obtained from myoelectric response) (rat; NaCl concentration 5% or more (FIG. 6B)) | magnitude of pain (VAS) (human; plurality of different molar concentrations (FIG. 7A, created from source graph)) | pain (EMG intensity obtained from myoelectric response) (rat; plurality of different molar concentrations (FIG. 7B)) |
| --- | --- | --- | --- | --- | --- |
| [Cl-].[Na+] [NaCl] | great pain | varies depending on a difference in the administration rate | significantly increases | – | – |
| N[C@@H](CCC(=O)O)C(=O)O [glutamic acid] | – | – | – | the pain increases as the molar concentration of glutamic acid increases | the pain increases as the molar concentration of glutamic acid increases |
